In patent US12338223B2 (PURISYS LLC, priority 2019, dated 2025):
Values after ≈ are worked out from the molar mass of the structure shown.

Tests used:
CB2 receptor = CB2 receptor (Homo sapiens, UniProt P34972); conditions: fold lower affinity than THC; cited from earlier work
CB1 receptor [1] = biological target: T1, CB1 receptor (Homo sapiens, UniProt P21554); conditions: fold lower affinity than THC; cited from earlier work
[2] = Solubility of CBN in crystallization solvents (solvent screen); assay type: physicochemical; conditions: organic solvent or mixture, RT
CB1 receptor [3] = biological target: T1, CB1 receptor; conditions: cited from earlier work

T1 sequence (P21554 whole entry): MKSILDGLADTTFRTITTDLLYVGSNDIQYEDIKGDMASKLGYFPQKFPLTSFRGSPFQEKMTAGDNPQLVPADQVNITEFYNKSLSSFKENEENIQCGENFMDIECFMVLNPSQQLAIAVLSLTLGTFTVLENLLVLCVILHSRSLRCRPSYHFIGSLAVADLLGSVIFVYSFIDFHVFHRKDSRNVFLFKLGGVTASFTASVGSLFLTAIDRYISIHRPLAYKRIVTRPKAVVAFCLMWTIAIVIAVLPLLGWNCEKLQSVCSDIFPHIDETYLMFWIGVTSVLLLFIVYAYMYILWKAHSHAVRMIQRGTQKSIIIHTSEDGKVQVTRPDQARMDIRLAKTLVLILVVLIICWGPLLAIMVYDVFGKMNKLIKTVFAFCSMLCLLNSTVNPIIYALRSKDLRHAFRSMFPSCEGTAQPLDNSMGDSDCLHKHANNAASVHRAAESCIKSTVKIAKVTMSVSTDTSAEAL
CB2 receptor, sequence (P34972 whole entry): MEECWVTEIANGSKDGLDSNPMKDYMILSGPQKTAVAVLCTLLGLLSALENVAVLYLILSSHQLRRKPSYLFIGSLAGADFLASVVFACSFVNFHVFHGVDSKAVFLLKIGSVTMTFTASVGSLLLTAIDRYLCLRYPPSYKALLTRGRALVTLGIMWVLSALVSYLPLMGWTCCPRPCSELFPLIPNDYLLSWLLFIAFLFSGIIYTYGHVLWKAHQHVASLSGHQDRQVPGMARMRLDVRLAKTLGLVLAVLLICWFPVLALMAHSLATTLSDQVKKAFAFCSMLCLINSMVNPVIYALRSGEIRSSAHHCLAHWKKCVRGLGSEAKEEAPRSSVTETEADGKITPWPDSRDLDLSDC

SMILES: CCCCCc1cc(O)c2c(c1)OC(C)(C)c1ccc(C)cc1-2 [CBN, cannabinol]
- Affinity lower relative to THC (CB2 receptor): about 3 fold
- Affinity lower relative to THC (CB1 receptor [1]): 7- to 8 fold
- solubility ([2]; solvent Iso-Octane): 24.9 mg/mL (≈ 80.2 mM)
- solubility ([2]; solvent n-Heptane): 33.4 mg/mL (≈ 108 mM)
- Type of activity at CB1 receptors (CB1 receptor [3]): partial agonist
